# From patent publication US6291657A (priority 1993, dated 2001)
# “Also recorded” adds a separate entry of the source.
# Key:
# WEHI-3B cell lysosomes = experiment: Transmission electron microscopy of lysosomes of CBE treated WEHI-3B cells; format: cell-based, murine; settings: transmission electron microscopy (FIG. 6)
# [1] = system: glycolipid biosynthesis in HL-60 cells; experiment: Inhibition of glycolipid biosynthesis in HL-60 cells, [14C]-palmitic acid labelling, 1D-TLC;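 on all read-outs here: cells cultured 24 h with or without test compound, total cellular lipids resolved by one-dimensional TLC and detected by autoradiography, inhibition shown as missing Glc-Cer and gangliosides versus untreated cells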; format: cell-based, human; settings: for effect of N-alkyl chain length on inhibition of glycolipid biosynthesis (loss of detectable Glc-Cer): HL-60, 0.5 mM, 1D-TLC (FIG. 4); for inhibition of glycolipid biosynthesis: HL-60, 500 μM, 1D-TLC (FIG. 1)
# [2] = system: UDP-glucose:N-acylsphingosine glucosyltransferase; experiment: Inhibition of UDP-glucose:N-acylsphingosine glucosyltransferase; format: biochemical, rat brain, mouse macrophage (WEHI-3B); settings: for IC50: highest concentrations tested, read-out: IC50 (not inhibitory)
# [3] = system: Glc-Cer accumulation in WEHI-3B murine macrophage cells; experiment: In vitro Gaucher's disease model: CBE induced glycolipid storage in WEHI-3B cells, 1D-TLC; format: cell-based; settings: CBE
# Protocol: In this model, the murine macrophage cell line WEHI-3B was cultured in the presence of an irreversible glucocerebrosidase inhibitor, conduritol β epoxide (CBE), to mimic the inherited disorder found in Gaucher's disease. WEHI-3B cells are well-known, widely distributed and readily available murine macrophage cells. They are described in Cancer Res. 37, 546-550 (1977), and are readily available from the American Type Culture Collection, Rockville, Md, under accession number ATCC TIB 68. The compounds of the invention prevent lysosomal glycolipid storage which is useful for the management of Gaucher's disease and other glycolipid storage disorders as illustrated hereinafter in Table 3. Gaucher's disease is an autosomal recessive disorder characterized by an impaired ability to degrade glucocerebroside (glucosyl ceramide, Glc-Cer) due to mutations in the gene encoding β-glucocerebrosidase (β-D-glucosyl-N-acylsphingosine glucohydrolase, EC 3.2.1.45). This defect results in the lysosomal accumulation of Glc-Cer in cells of the macrophage-monocyte system [Barranger and Ginns, in The Metabolic Basis of Inherited Diseases, ed. Scriver et al., pp. 1677-1698, McGraw-Hill, New York, (1989); Beutler, Science 256, 794-799 (1992)]. By slowing the rate of glycolipid synthesis, the impaired catabolism of Glc-Cer can be offset, thereby leading to the maintenance of a balanced level of Glc-Cer.
# FIGS. 5 and 6 show the analysis of NB-DNJ and NB-DGJ in an in vitro Gaucher's disease model.
# The in vitro Gaucher's disease model was prepared as follows: WEHI-3B cells (American Type Culture Collection, Rockville, Md., U.S.A.) were maintained in logarithmic phase growth for 14 days in RPMI-1640 medium, 10% FCS, in the presence or absence of 50 μM conduritol β epoxide (CBE, Toronto Research Chemicals, Downsview, Canada) with or without NB-DNJ or NB-DGJ. Cells were passaged every 3 days and compound concentrations maintained throughout. Equal cell numbers (5×10^6) were harvested, extracted in 1 ml chloroform: methanol (2:1 v/v) overnight at 4° C., the extracts centrifuged, the chloroform:methanol extract retained and the pellet re-extracted as above for 2 hr. at room temperature. Pooled extracts were dried under nitrogen, re-dissolved in 10 μl chloroform:methanol (2:1 v/v) and separated by 1D-TLC in chloroform:methanol:water […]. Plates were air dried and visualized using α-naphthol (1% w/v in methanol) followed by 50% (v/v) sulphuric acid.
Compound,effect of N-alkyl chain length on inhibition of glycolipid biosynthesis (loss of detectable Glc-Cer) [1],other results
"O[C@H]1[C@H](O)[C@@H](O)[C@@H]2O[C@@H]2[C@@H]1O [CBE, conduritol β epoxide]",–,glycolipid accumulation in lysosomes (WEHI-3B cell lysosomes): glycolipid accumulation observed in the lysosomes
"OC[C@H]1NC[C@H](O)[C@@H](O)[C@H]1O [DGJ, Deoxygalactonojirimycin]",no effect; also recorded: inactive,inhibition of glucose transfer ([2]; highest concentration tested 5.0 mM (FIG. 8)): not inhibitory at the highest concentration tested; IC50 [2]: > 5 mM
"OC[C@H]1NC[C@H](O)[C@@H](O)[C@@H]1O [DNJ, deoxynojirimycin]",no effect,inhibition of glucose transfer ([2]; highest concentration tested 6.1 mM (FIG. 8)): not inhibitory at the highest concentration tested; IC50 [2]: > 5 mM
CCN1C[C@H](O)[C@@H](O)[C@@H](O)[C@H]1CO [N-ethyl DGJ],no effect; also recorded: inactive,–
"CCCCCCN1C[C@H](O)[C@@H](O)[C@@H](O)[C@H]1CO [N-hexyl DGJ, N-hexyl deoxygalactonojirimycin]",completely prevented glycolipid biosynthesis; also recorded: completely inhibited glycolipid biosynthesis,prevention of glycolipid storage in in vitro Gaucher's disease model (in words) [3]: offset glucoceramide accumulation
CCCCCCN1C[C@H](O)[C@@H](O)[C@H](O)[C@H]1CO [N-hexyl DNJ],completely inhibited glycolipid biosynthesis,–
CN1C[C@H](O)[C@@H](O)[C@@H](O)[C@H]1CO [N-methyl DGJ],no effect; also recorded: inactive,–
CN1C[C@H](O)[C@@H](O)[C@H](O)[C@H]1CO [N-methyl DNJ],no effect,–
"CCCN1C[C@H](O)[C@@H](O)[C@@H](O)[C@H]1CO [N-propyl DGJ, N-propyl deoxygalactonojirimycin]",partial inhibitory activity; also recorded: partially active,–
CCCN1C[C@H](O)[C@@H](O)[C@H](O)[C@H]1CO [N-propyl DNJ],partial inhibitory activity,–
CCCCN1C[C@@H](O)[C@H](O)[C@H](O)[C@@H]1C [NB-DFJ],–,inhibition of glycolipid biosynthesis [1]: without effect
"CCCCN1C[C@@H](O)[C@@H](O)[C@H](O)[C@H]1CO [NB-DMJ, N-butyl deoxymannojirimycin]",–,inhibition of glycolipid biosynthesis [1]: without effect
"CCCCN1C[C@H](NC(C)=O)[C@@H](O)[C@H](O)[C@H]1CO [NB-NAG, N-butyl 2-acetamido-1,2,5-trideoxy-1,5-imino-D-glucitol]",–,inhibition of glycolipid biosynthesis [1]: without effect
